Test results published in patent publication US8835646B2, “Organic compounds” (Novartis AG, priority 2005, dated 2014).
Where two headings read alike, the source gives them in different places.

How the values were obtained:
human aromatase = molecular target: T1, human aromatase (Homo sapiens, UniProt P11511); assay: human aromatase assay (Supersomes, DBF substrate, fluorescence); assay type: biochemical; settings: for inhibition at 10 µM: 10000 nM
T1 construct: purchased Gentest (Woburn, Mass.)
T1 sequence (P11511 1-503): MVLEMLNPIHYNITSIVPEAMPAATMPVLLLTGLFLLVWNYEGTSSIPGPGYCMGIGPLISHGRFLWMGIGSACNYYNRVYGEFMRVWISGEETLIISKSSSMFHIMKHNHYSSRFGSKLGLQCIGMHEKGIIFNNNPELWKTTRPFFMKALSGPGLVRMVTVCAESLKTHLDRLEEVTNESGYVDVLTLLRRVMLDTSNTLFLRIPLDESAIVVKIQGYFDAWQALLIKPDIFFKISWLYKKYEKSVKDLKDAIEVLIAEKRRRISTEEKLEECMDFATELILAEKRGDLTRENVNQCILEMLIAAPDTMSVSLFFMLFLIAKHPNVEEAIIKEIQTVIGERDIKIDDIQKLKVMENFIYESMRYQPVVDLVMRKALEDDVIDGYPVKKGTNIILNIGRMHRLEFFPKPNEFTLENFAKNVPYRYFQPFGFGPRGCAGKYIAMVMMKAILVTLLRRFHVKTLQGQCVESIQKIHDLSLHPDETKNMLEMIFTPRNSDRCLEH
From the text: (§1) Human adrenocortical carcinoma NCl-H295R cell line is obtained from American Type Culture Collection (Manassas, Va.). Insulin/transferrin/selenium (ITS)-A supplement (100×), DMEM/F-12, antibiotic/antimycotic (100×), and fetal calf serum (FCS) are purchased from Gibco (Grand Island, N.Y.). Anti-mouse PVT scintillation proximity assay (SPA) beads and NBS 96-well plates are obtained from Amersham (Piscataway, N.J.) and Corning (Acton, Mass.), respectively. Solid black 96-well flat bottom plates are purchased from Costar (Corning, N.Y.). Aldosterone and angiotensin (Ang II) are purchased from Sigma (St. Louis, Mo.). D-[1,2,6,7-^3H(N)]aldosterone was acquired from PerkinElmer (Boston, Mass.). Nu-serum was a product of BD Biosciences (Franklin Lakes, N.J.). The NADPH regenerating system, dibenzylfluorescein (DBF), and human aromatase Supersomes® are obtained from Gentest (Woburn, Mass.).
To measure aromatase activity, the human aromatase assay is performed in 96-well flat bottom plates according to a published protocol (Stresser et al, 2000) with minor modifications. Briefly, 10 μl of an NADPH regenerating system containing 2.6 mM NADP^+, 6.6 mM glucose 6-phosphate, 6.6 mM MgCl2, and 0.8 U/ml glucose-6-phosphate dehydrogenase in 50 mM potassium phosphate, pH 7.4, is pre-incubated with the test compound at a desired concentration at 30° C. for 10 min in a total volume of 100 μl. Afterwards, 4 pmol of human aromatase, 20 μg of control microsomal protein, and 4 μM DBF in 100 μl of 50 mM potassium phosphate, pH 7.4, is added to each well and incubated at 30° C. for 90 min. The reaction is terminated by the addition of 75 μl of 2 N NaOH to each well. After 2 hr, the product, fluorescein, is measured by a fluorimeter using excitation and emission wavelengths of 485 and 538 nm, respectively.
(§2) Full concentration-response curves of the test compound are performed at least 3 times. The IC50 values are derived using a non-linear least squares curve-fitting program from Microsoft XLfit.

aldosterone synthase = molecular target: T2, aldosterone synthase (Homo sapiens, UniProt P19099); assay: cellular aldosterone production in NCI-H295R cells stimulated with Ang II (RIA/SPA); assay type: cell-based; settings: human adrenocortical carcinoma NCI-H295R cells, 1 μM Ang II, 24 hr
T2 construct: host or cells: NCI-H295R
T2 sequence (P19099 25-503): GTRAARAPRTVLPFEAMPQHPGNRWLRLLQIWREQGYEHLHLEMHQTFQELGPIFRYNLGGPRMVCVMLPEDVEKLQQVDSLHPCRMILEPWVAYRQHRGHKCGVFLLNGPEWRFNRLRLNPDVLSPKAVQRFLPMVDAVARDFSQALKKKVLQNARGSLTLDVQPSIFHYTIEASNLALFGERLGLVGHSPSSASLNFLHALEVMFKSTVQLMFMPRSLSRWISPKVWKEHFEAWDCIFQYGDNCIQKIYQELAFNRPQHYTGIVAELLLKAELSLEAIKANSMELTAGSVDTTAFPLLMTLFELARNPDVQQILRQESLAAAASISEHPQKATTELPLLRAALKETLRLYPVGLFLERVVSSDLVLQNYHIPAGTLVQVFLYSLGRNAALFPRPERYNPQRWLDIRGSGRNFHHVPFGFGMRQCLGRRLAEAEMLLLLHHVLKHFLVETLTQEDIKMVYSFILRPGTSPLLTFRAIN
From the text: as §1
For in vitro measurement of aldosterone activity, human adrenocortical carcinoma NCI-H295R cells are seeded in NBS 96-well plates at a density of 25,000 cells/well in 100 μl of a growth medium containing DMEM/F12 supplemented with 10% FCS, 2.5% Nu-serum, 1 μg ITS/ml, and 1× antibiotic/antimycotic. The medium is changed after culturing for 3 days at 37° C. under an atmosphere of 5% CO2/95% air. On the following day, cells are rinsed with 100 μl of DMEM/F12 and incubated with 100 μl of treatment medium containing 1 μM Ang II and a compound at different concentrations in quadruplicate wells at 37° C. for 24 hr. At the end of incubation, 50 μl of medium is withdrawn from each well for measurement of aldosterone production by an RIA using mouse anti-aldosterone monoclonal antibodies.
Measurement of aldosterone activity can also be performed using a 96-well plate format. Each test sample is incubated with 0.02 μCi of D-[1,2,6,7-^3H(N)]aldosterone and 0.3 μg of anti-aldosterone antibody in phosphate-buffered saline (PBS) containing 0.1% Triton X-100, 0.1% bovine serum albumin, and 12% glycerol in a total volume of 200 μl at room temperature for 1 hr. Anti-mouse PVT SPA beads (50 μl) are then added to each well and incubated overnight at room temperature prior to counting in a Microbeta plate counter. The amount of aldosterone in each sample is calculated by comparing with a standard curve generated using known quantities of the hormone.
as §2

Structure (SMILES) | inhibition at 10 µM (human aromatase) | IC50 (aldosterone synthase) | % inhibition of aromatase @ 10000 nM (human aromatase) | % inhibition of aromatase @ 10000 nM (human aromatase; 10 µM)
N#Cc1ccc([C@@H]2C[C@H](Cc3ccc(F)cc3)Cc3cncn32)c(F)c1 (relative stereo) [cis- and trans-3-Fluoro-4-[7-(4-fluorobenzyl)-5,6,7,8-tetrahydroimidazo[1,5-a]pyridin-5-yl]benzonitrile] | 100% | 7 nM |  | 
COc1cc(C#N)ccc1[C@@H]1C[C@@H](Cc2ccc(F)cc2)Cc2cncn21 (relative stereo) [trans-3-Methoxy-4-[7-(4-fluorobenzyl)-5,6,7,8-tetrahydroimidazo[1,5-a]pyridin-5-yl]benzonitrile] | 100% | 83 nM |  | 
Cc1cc(C#N)ccc1C1CCc2cncn21 (single isomer, unassigned) [4-(6,7-Dihydro-5H-pyrrolo[1,2-c]imidazol-5-yl)-3-methylbenzonitrile] | 96% |  | 96% | 
CC1CCCC(c2ccc(C#N)cc2-c2ccc(F)cc2)n2cncc21 (single isomer, unassigned) [4′-Fluoro-6-(9-methyl-6,7,8,9-tetrahydro-5H-imidazo[1,5-a]az] [4′-Fluoro-6-(9-methyl-6,7,8,9-tetrahydro-5H-imidazo[1,5-a]azepin-5-yl)biphenyl-3-carbonitrile] |  |  |  | 98%
CC1CCCC(c2ccc(C#N)cc2-c2ccc(F)cc2)n2cncc21 (single isomer, unassigned) [4′-Fluoro-6-(9-methyl-6,7,8,9-tetrahydro-5H-imidazo[1,5-a]azepin-5-yl)biphenyl-3-carbonitrile] | 81% |  |  | 
N#Cc1ccc(C2(C(=O)OCc3ccc(F)cc3)CCc3cncn32)c(Cl)c1 (single isomer, unassigned) [5-(2-Chloro-4-cyanophenyl)-6,7-dihydro-5H-pyrrolo[1,2-c]imid] [5-(2-Chloro-4-cyanophenyl)-6,7-dihydro-5H-pyrrolo[1,2-c]imidazole-5-carboxylic acid 4-fluorobenzyl ester] |  |  |  | 98%
N#Cc1ccc(C2(C(=O)OCc3ccc(F)cc3)CCc3cncn32)c(Cl)c1 (single isomer, unassigned) [5-(2-Chloro-4-cyanophenyl)-6,7-dihydro-5H-pyrrolo[1,2-c]imidazole-5-carboxylic acid 4-fluorobenzyl ester] | 91% |  |  | 
COc1ccc(CN(C)C(=O)C2(c3ccc(C#N)cc3Cl)CCc3cncn32)cc1 (single isomer, unassigned) [5-(2-Chloro-4-cyanophenyl)-6,7-dihydro-5H-pyrrolo[1,2-c]imidazole-5-carboxylic acid (4-methoxybenzyl)methylamide] | 98% |  |  | 
COc1ccc(CN(C)C(=O)C2(c3ccc(C#N)cc3Cl)CCc3cncn32)cc1 (single isomer, unassigned) [5-(2-chloro-4-cyanophenyl)-6,7-dihydro-5H-pyrrolo[1,2-c]imid] [5-(2-Chloro-4-cyanophenyl)-6,7-dihydro-5H-pyrrolo[1,2-c]imidazole-5-carboxylic acid (4-methoxybenzyl)methylamide] |  |  |  | 97%
N#Cc1ccc(C2CCCCc3cncn32)cc1Br (centres unmarked) [2-Bromo-4-(6,7,8,9-tetrahydro-5H-imidazo[1,5-a]azepin-5-yl)benzonitrile] | 100% | 23 nM |  | 
Cc1noc(C)c1-c1cc(C#N)ccc1C1CCCCc2cncn21 (centres unmarked) [3-(3,5-Dimethylisoxazol-4-yl)-4-(6,7,8,9-tetrahydro-5H-imidazo[1,5-a]azepin-5-yl)benzonitrile] | 59% | 40 nM |  | 
N#Cc1ccc(C2CCc3cncn32)c(N)c1 (centres unmarked) [3-Amino-4-(6,7-dihydro-5H-pyrrolo[1,2-c]imidazol-5-yl)benzonitrile] | 100% | 90 nM |  | 
N#Cc1ccc(C2CCCCc3cncn32)c(Cl)c1 (centres unmarked) [3-Chloro-4-(6,7,8,9-tetrahydro-5H-imidazo[1,5-a]azepin-5-yl)benzonitrile] | 100% | 48 nM |  | 
N#Cc1ccc(C2(C(=O)N3CCOCC3)CCc3cncn32)c(Cl)c1 (centres unmarked) [3-Chloro-4-[5-(morpholino-4-carbonyl)-6,7-dihydro-5H-pyrrolo[1,2-c]imidazol-5-yl]benzonitrile] |  | 357 nM |  | 
N#Cc1ccc(C2(C(=O)N3CCCCC3)CCc3cncn32)c(Cl)c1 (centres unmarked) [3-Chloro-4-[5-(piperidine-1-carbonyl)-6,7-dihydro-5H-pyrrolo[1,2-c]imidazol-5-yl]benzonitrile] | 98% | 135 nM |  | 
CCC1(c2ccc(C#N)cc2Cl)CCCCc2cncn21 (centres unmarked) [3-Chloro-(5-ethyl-6,7,8,9-tetrahydro-5H-imidazo[1,5-a]azepin-5-yl)benzonitrile] | 91% | 217 nM |  | 
C=C1CC(c2ccc(C#N)cc2F)n2cncc21 (centres unmarked) [3-Fluoro-4-(7-methylene-6,7-dihydro-5H-pyrrolo[1,2-c]imidazol-5-yl)benzonitrile] | 95% | 4 nM |  | 
COc1cc(C#N)ccc1C1CCCc2cncn21 (centres unmarked) [3-Methoxy-4-(5,6,7,8-tetrahydro-imidazo[1,5-a]pyridin-5-yl)benzonitrile] | 100% | 270 nM |  | 
N#Cc1ccc(C2CCCCc3cncn32)c(-c2cccnc2)c1 (centres unmarked) [3-Pyridin-3-yl-4-(6,7,8,9-tetrahydro-5H-imidazo[1,5-a]azepin-5-yl)benzonitrile] | 97% | 35 nM |  | 
C=C1CC2(CCCCc3cncn32)c2ccc(C#N)cc21 (centres unmarked) [3′-Methylene-2′,3′,6,7,8,9-hexahydrospiro[imidazo[1,5-a]azepine-5,1′-indene]-5′-carbonitrile] | 100% | 11 nM |  | 
COC(=O)C1(c2ccc(C#N)cc2C(F)(F)F)CCc2cncn21 (centres unmarked) [5-(4-Cyano-2-trifluoromethylphenyl)-6,7-dihydro-5H-pyrrolo[1,2-c]imidazole-5-carboxylic acid methyl ester] |  | 244 nM |  | 
CC1(c2ccc(C#N)cc2-c2ccccc2)CCCc2cncn21 (centres unmarked) [6-(5-Methyl-5,6,7,8-tetrahydroimidazo[1,5-a]pyridin-5-yl)biphenyl-3-carbonitrile] |  | 270 nM |  | 
